Measurements as given in patent US11453660B2, “Androgen receptor and glucocorticoid receptor modulators” (ONCOSTELLAE, S.L., priority 2017, dated 2022).

Assays:
AR-Receptor = target: T1, AR-Receptor (Homo sapiens, UniProt P10275); assay: Functional Assay AR-Receptor (MDA-MB-453 cells, luciferase); type: cell-based; details: antagonist effect in the presence of DHT 1 nM, 24 h, luciferase luminescence, read-out: AR antag KB
T1 sequence (P10275 1-920 Q868H): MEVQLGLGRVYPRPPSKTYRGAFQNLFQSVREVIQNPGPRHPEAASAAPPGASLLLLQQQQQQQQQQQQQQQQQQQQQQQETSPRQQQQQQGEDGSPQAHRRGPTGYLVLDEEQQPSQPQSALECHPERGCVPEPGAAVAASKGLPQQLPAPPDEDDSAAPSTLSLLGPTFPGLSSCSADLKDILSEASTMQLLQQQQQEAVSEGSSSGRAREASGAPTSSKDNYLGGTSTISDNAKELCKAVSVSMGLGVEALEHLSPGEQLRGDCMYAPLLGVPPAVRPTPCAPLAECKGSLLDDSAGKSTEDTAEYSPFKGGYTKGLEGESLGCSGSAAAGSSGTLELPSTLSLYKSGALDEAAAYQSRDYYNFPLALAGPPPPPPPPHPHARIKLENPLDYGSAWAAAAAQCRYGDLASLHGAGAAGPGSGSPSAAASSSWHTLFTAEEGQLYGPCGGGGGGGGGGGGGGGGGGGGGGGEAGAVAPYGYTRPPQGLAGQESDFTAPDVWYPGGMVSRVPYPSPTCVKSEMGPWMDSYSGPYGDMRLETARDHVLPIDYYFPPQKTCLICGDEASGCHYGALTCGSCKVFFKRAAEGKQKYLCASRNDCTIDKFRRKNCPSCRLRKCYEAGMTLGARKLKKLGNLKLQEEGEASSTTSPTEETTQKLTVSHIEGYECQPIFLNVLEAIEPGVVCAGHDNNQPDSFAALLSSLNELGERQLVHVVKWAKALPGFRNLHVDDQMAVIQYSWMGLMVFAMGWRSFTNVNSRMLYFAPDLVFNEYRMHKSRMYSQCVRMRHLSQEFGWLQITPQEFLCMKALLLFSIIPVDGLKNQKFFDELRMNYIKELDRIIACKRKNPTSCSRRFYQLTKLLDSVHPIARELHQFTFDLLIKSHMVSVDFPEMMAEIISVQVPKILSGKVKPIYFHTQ
How it was run: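 MDA-MB-453 cells, 8000/well, were switched to medium with 0.1% FBS and exposed to compounds for 24 h at 37 °C. Antagonist mode used 1 nM DHT. After lysis and a freeze-thaw cycle, luciferase luminescence was read.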

Rat Androgen Receptor = target: T2, Rat Androgen Receptor (Rattus norvegicus, UniProt P15207); assay: Rat Androgen Receptor Binding (polarscreen AR competitor assay, fluorescence polarization); details: displacement of Fluormone AL Green, 4 hours at RT, read-out: AR rat-fluorimetric
T2 construct: purchased Life Technologies A15880
T2 sequence (P15207 646-902 limits assumed): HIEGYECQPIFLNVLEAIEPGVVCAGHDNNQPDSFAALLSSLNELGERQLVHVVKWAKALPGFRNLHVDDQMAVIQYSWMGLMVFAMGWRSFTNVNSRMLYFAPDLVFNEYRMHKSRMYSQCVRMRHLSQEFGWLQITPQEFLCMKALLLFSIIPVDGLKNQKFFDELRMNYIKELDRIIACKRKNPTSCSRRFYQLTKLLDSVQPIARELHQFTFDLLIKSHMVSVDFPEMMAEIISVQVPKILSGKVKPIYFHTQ
How it was run: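 Fluorescence-polarization competition of Fluormone AL Green binding to rat androgen receptor; compounds screened in duplicate at 1 and 10 μM, 4 h at RT, read at λexc 485/λem 535 nm. IC50 from 1:10 dilution series, 10 μM to 0.1 nM, in 1× buffer.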

SMILES	Kb (AR-Receptor)	IC50 (Rat Androgen Receptor)
CC(=O)C1=C(C)NC(C)=C(C(=O)OCc2ccccc2)C1c1csc2ccccc12 (stereo not drawn) [Example B6, Benzyl 5-acetyl-4-(benzo[b]thiophen-3-yl)-2,6-dimethyl-1,4-dihydro-pyridine-3-carboxylate]	100 to 1000 nM	100 to 1000 nM
CC(=O)C1=C(C)NC(C)=C(C(=O)OCC2CCOCC2)C1c1csc2ccccc12 (stereo not drawn) [Example C2, (Tetrahydro-2H-pyran-4-yl)methyl 5-acetyl-4-(benzo[b]thiophen-3-yl)-2,6-dimethyl-1,4-dihydropyridine-3-carboxylate]	100 to 1000 nM	100 to 1000 nM
CC(=O)C1=C(C)NC(C)=C(C(=O)OCC2CC2)C1c1csc2ncccc12 (stereo not drawn) [Example C24, Cyclopropylmethyl 5-acetyl-2,6-dimethyl-4-(thieno[2,3-b]pyridin-3-yl)-1,4-dihydropyridine-3-carboxylate]	≥ 1000 nM	< 100 nM
COC(=O)C1=C(C2CC2)NC(C)=C(C(C)=O)C1c1csc2ncccc12 (stereo not drawn) [Example J23, Methyl 5-acetyl-2-cyclopropyl-6-methyl-4-(thieno[2,3-b]pyridin-3-yl)-1,4-dihydropyridine-3-carboxylate]	≥ 1000 nM	< 100 nM
COC(=O)C1=C(C2CC2)NC(C)=C(C(C)=O)C1c1csc2c(Br)cccc12 (stereo not drawn) [Example J26, Methyl 5-acetyl-4-(7-bromobenzo[b]thiophen-3-yl)-2-cyclopropyl-6-methyl-1,4-dihydropyridine-3-carboxylate]	100 to 1000 nM	
CC(=O)C1=C(C)NC(C2CC2)=C(C(=O)OCc2ccncc2)C1c1csc2c(Br)cccc12 (stereo not drawn) [Example J41, Pyridin-4-ylmethyl 5-acetyl-4-(7-bromobenzo[b]thiophen-3-yl)-2-cyclopropyl-6-methyl-1,4-dihydropyridine-3-carboxylate]	100 to 1000 nM	
CC(=O)C1=C(C)NC(C2CC2)=C(C(=O)OCc2ccc(F)cc2)C1c1csc2ncccc12 (stereo not drawn) [Example J42, 4-fluorobenzyl 5-acetyl-2-cyclopropyl-6-methyl-4-(thieno[2,3-b]pyridin-3-yl)-1,4-dihydropyridine-3-carboxylate]	< 100 nM	
CC(=O)C1=C(C)NC(C)=C(C(=O)OCc2ccc(-c3ccncc3)cc2)C1c1csc2ncccc12 (stereo not drawn) [Example L1, 4-(pyridin-4-yl)benzyl 5-acetyl-2,6-dimethyl-4-(thieno[2,3-b]pyridin-3-yl)-1,4 dihydropyridine-3-carboxylate]	100 to 1000 nM	
CC(=O)C1=C(C)NC(C)=C(C(=O)OCc2ccc(-c3cccnc3)cc2)C1c1csc2ncccc12 (stereo not drawn) [Example L2, 4-(pyridin-3-yl)benzyl 5-acetyl-2,6-dimethyl-4-(thieno[2,3-b]pyridin-3-yl)-1,4-dihydropyridine-3-carboxylate]	100 to 1000 nM	
CC(=O)C1=C(C)NC(C)=C(C(=O)OCc2cccc(-c3ccncc3)c2)C1c1csc2ncccc12 (stereo not drawn) [Example L3, 3-(pyridin-4-yl)benzyl 5-acetyl-2,6-dimethyl-4-(thieno[2,3-b]pyridin-3-yl)-1,4-dihydropyridine-3-carboxylate]	100 to 1000 nM	
CC(=O)C1=C(C)NC(C)=C(C(=O)OCc2cccc(-c3cccnc3)c2)C1c1csc2ncccc12 (stereo not drawn) [Example L4, 3-(pyridin-3-yl)benzyl 5-acetyl-2,6-dimethyl-4-(thieno[2,3-b]pyridin-3-yl)-1,4-dihydropyridine-3-carboxylate]	100 to 1000 nM	
